Data from patent US20230416258A1, “BENZ[…], AND PREPARATION METHOD THEREFOR AND USE THEREOF” (CHINA PHARMACEUTICAL UNIVERSITY, priority 2020, published 2023).

Tested on: KM mice
Assay: Test for drug-induced disappearance of righting reflex in mice
Assay type: in vivo
Conditions: single rapid bolus via tail vein
Source text: In anesthetic drug experiments, latency generally refers to the time from the start of administration to the loss of consciousness of the subject. The shorter latency is preferred, indicating a rapid onset of action after administration. The duration of anesthesia generally refers to the duration of time from the loss of consciousness to the restoration of consciousness of the subject. The duration of the drug will vary from animal model to animal species. Too long anesthesia may produce adverse cardiovascular and respiratory responses, such as adverse neurological effects to the subject, including sleepiness and dizziness; meanwhile, too short duration of anesthesia may affect the anesthesia effect, causing problems such as increase of anesthesia dosage during the operation.
KM mice (female, 18-25 g) were randomly grouped and subjected to a single administration by rapid bolus via the tail vein. The latency and duration of disappearance of righting reflex in the mice were recorded.

Compound	Duration (30 mg/kg) [min]	Latency (30 mg/kg) [min]	Duration (60 mg/kg) [min]	Latency (60 mg/kg) [min]
COC(=O)CC[C@@H]1N=C(c2ccccc2Cl)c2cc(Cl)ccc2-n2c(SC(C)=O)nnc21 [Compound 38, methyl (S)-3-(8-chloro-6-(2-chlorophenyl)-1-(acetylthio)-4H-benzo[f][1,2,4]triazolo[4,3-a][1,4]diazepin-4-yl)propionate]	12.94	0.67	–	–
COC(=O)CC[C@@H]1N=C(c2ccccc2Cl)c2cc([N+](=O)[O-])ccc2-n2c(SC(C)=O)nnc21 [Compound 40, methyl (S)-3-(8-nitro-6-(2-chlorophenyl)-1-(acetylthio)-4H-benzo[f][1,2,4]triazolo[4,3-a][1,4]diazepin-4-yl)propionate]	8.94	0.37	–	–
CCOC(=O)CC[C@@H]1N=C(c2ccccc2Cl)c2cc(Cl)ccc2-n2c(S)nnc21 [Compound 41, ethyl (S)-3-(8-chloro-6-(2-chlorophenyl)-1-mercapto-4H-benzo[f][1,2,4]triazolo[4,3-a][1,4]diazepin-4-yl)propionate]	–	–	8.59	0.40
CCOC(=O)CC[C@@H]1N=C(c2ccccc2Cl)c2cc(Cl)ccc2-n2c(SC)nnc21 [Compound 42, ethyl (S)-3-(8-chloro-6-(2-chlorophenyl)-1-(methylthio)-4H-benzo[f][1,2,4]triazolo[4,3-a][1,4]diazepin-4-yl)propionate]	4.68	0.65	–	–
CCOC(=O)CC[C@@H]1N=C(c2ccccc2Cl)c2cc(Br)ccc2-n2c(SC)nnc21 [Compound 43, ethyl (S)-3-(8-bromo-6-(2-chlorophenyl)-1-(methylthio)-4H-benzo[f][1,2,4]triazolo[4,3-a][1,4]diazepin-4-yl)propionate]	12.38	0.38	7.25	0.84
CCOC(=O)CC[C@@H]1N=C(c2ccccc2Cl)c2cc([N+](=O)[O-])ccc2-n2c(SC)nnc21 [Compound 44, ethyl (S)-3-(8-nitro-6-(2-chlorophenyl)-1-(methylthio)-4H-benzo[f][1,2,4]triazolo[4,3-a][1,4]diazepin-4-yl)propionate]	16.27	1.28	–	–
COC(=O)CC[C@@H]1N=C(c2ccccc2F)c2cc(Cl)ccc2-n2c(SCC3CC3)nnc21 [Compound 45, methyl (S)-3-(8-chloro-1-((cyclopropylmethyl)thio)-6-(2-fluorophenyl)-4H-benzo[f][1,2,4]triazolo[4,3-a][1,4]diazepin-4-yl)propionate]	11.37	0.65	–	–
COC(=O)CC[C@@H]1N=C(c2ccccc2F)c2cc(Br)ccc2-n2c(SCC3CC3)nnc21 [Compound 46, methyl (S)-3-(8-bromo-1-((cyclopropylmethyl)thio)-6-(2-fluorophenyl)-4H-benzo[f][1,2,4]triazolo[4,3-a][1,4]diazepin-4-yl)propionate]	10.83	0.69	–	–
COC(=O)CC[C@@H]1N=C(c2ccccc2F)c2cc([N+](=O)[O-])ccc2-n2c(SCC3CC3)nnc21 [Compound 47, methyl (S)-3-(8-nitro-1-((cyclopropylmethyl)thio)-6-(2-fluorophenyl)-4H-benzo[f][1,2,4]triazolo[4,3-a][1,4]diazepin-4-yl)propionate]	–	–	10.52	0.82
C#CCSc1nnc2n1-c1ccc(Cl)cc1C(c1ccccc1F)=N[C@H]2CCC(=O)OC [Compound 48, methyl (S)-3-(8-chloro-6-(2-fluorophenyl)-1-(prop-2-yn-1-ylthio)-4H-benzo[f][1,2,4]triazolo[4,3-a][1,4]diazepin-4-yl)propionate]	–	–	8.54	1.25
C#CCSc1nnc2n1-c1ccc(Br)cc1C(c1ccccc1F)=N[C@H]2CCC(=O)OC [Compound 49, methyl (S)-3-(8-bromo-6-(2-fluorophenyl)-1-(prop-2-yn-1-ylthio)-4H-benzo[f][1,2,4]triazolo[4,3-a][1,4]diazepin-4-yl)propionate]	9.65	0.73	–	–
